# Assay results: paper PMC6072256 (ACS Omega, 2018)
# Molecular target: chymotrypsin (Bos taurus, UniProt P00766)
# Assay: chymotrypsin inhibition assay
# Type: biochemical
# Conditions: protease inhibition test; statement of the abstract
substance,measurement,value
streptopeptolin [compound 1],inhibitory activity against chymotrypsin (in words),showed inhibitory activity
